Measured values published in patent US8840898B2, “Immunoconjugates targeting syndecan-1 expressing cells and use thereof” (priority 2004, dated 2014).

Columns and labels:
[1] = cited from earlier work
[2] = cited from earlier work; remark: listed apart in the source
[3] = system: CD138+ MM cell lines MM-1S, MM-1R and Ocy-My5; experiment: Colorimetric survival assay (MTT), CD138+ cells; type: cell-based, human; conditions: 1-50 nM or equimolar concentrations, up to 96 h
Experimental: (§1) Survival of CD138^+ and CD138^− cells upon administration of B-B4-DM1, B-B4 and DM1 was examined using a tetrazolium colorimetric assay (CellTiter 96® Non-Radioactive Cell Proliferation Assay; Promega, Wis.), as previously described (Mossmann, 1983). Cells (1×10^4) were plated in 24-well plates in 1 ml RPMI complete medium and then treated as indicated. At the end of each treatment, cells were incubated with 150 μl of Dye Solution and then incubated for 4 h at 37° C. A solubilization/stop solution was then added to each well under vigorous pipetting to dissolve the formazan crystals. Absorbance was measured at 570 nm, and cell viability was estimated as percentage of untreated controls. All experiments were repeated 3 times, and each experimental condition was repeated in triplicate wells in each experiment. Data reported are average values±SD of 3 representative experiments.
(§2) The effects of B-B4-DM1 on survival of CD138^+ (MM-1S, MM-1R, Ocy-My5) and CD138^− cells (SUDHL-4 and WSU-WM) were determined using an MTT assay. […] Cell survival was measured using an MTT assay. […] CD138^+ MM cell lines MM-1S, MM-1R and Ocy-My5 were evaluated as well as CD138^− cell lines including the lymphoma cell line SUDHL4 and the Waldestrom's Macroglobulinemia cell line WSU-WM.

[4] = system: CD138+ Ocy-My5 MM cells adherent to BMSC; experiment: Cell proliferation assay ([3H]-thymidine) on cells adherent to BMSC, Ocy-My5; type: cell-based, human; conditions: 10 nM, 72 h treatment
Experimental: (§3) The effect of B-B4-DM1 on cell proliferation was measured by the extent of [^3H]-thymidine (NEN Life Science Products, Boston, Mass.) incorporation. Cells (2×10^4 cells/well) were incubated in 96-well culture plates in the presence of 70%-80% confluent BMSCs at 37° C. with or without a test-agent (in triplicate wells). [^3H]-thymidine (0.5 μCi) was then added to each well for the last 8 h. Cells were harvested onto glass filters with an automatic cell harvester (Cambridge Technology, Cambridge, Mass.) and counted using a Micro-Beta® Trilux counter (Wallac, Gaithersburgh, Md.).
(§4) Since adhesion of MM cells to BMSC (bone marrow stromal cells) protects MM cells against drug-induced apoptosis, the effect of B-B4-DM1 on proliferation of CD138^+ (Ocy-My5) MM and CD138^− (SUDHL-4) LB cells adherent to BMSC was evaluated.
(§5) Ocy-My5 (FIG. 3A) or SUDHL-4 (FIG. 3B) cells (2×10^4) were seeded on 70%-80% confluent BMSC for 24 h. Cell proliferation was measured by [^3H]thymidine incorporation following 72 h treatment with B-B4-DM1 (10 nM). Values represent the mean [^3H]-TdR incorporation (cpm) of triplicate cultures.

CD138+ Ocy-My5 MM cells = experiment: Detection of apoptosis (Annexin V / PI); type: cell-based, human; conditions: 10 nM, 48 h exposure
Experimental: Dual staining with FITC-labeled Annexin V and propidium iodide (PI) was carried out to detect induction of apoptotic cell death by B-B4-DM1. After treatment of 1×10^6 tumor cells for 48 h, cells were washed with PBS and re-suspended in 100 µl of HEPES buffer containing Annexin V-FITC and propidium iodide (PI) (Annexin V-FLUOS staining kit; Roche Diagnostic, Indianapolis, Ind.). Following 15 min incubation at room temperature, cells were analyzed using a Coulter Epics XL flow cytometer for the presence of an Annexin V-FITC-positive/PI-negative apoptotic cell population.
[…] Apoptotic cell death was then measured by staining with annexin V and PI and flow cytometric analysis.
Percentages of stained cells are reported in each quadrant. […] Ocy-My5 MM cells were exposed to B-B4 mAb (13.3 μg/ml) or B-B4-DM1 (10 nM) for 48 h, labeled with PI, and analyzed using flow cytometry. Percentages of cells in the S-phase (S) and G2/M phase (G2) are indicated.

[5] = system: CD138- cell lines SUDHL4 and WSU-WM; experiment: Colorimetric survival assay (MTT), CD138- cells; type: cell-based, human; conditions: 1-50 nM or equimolar concentrations, up to 96 h
Experimental: as §1, §2

[6] = system: CD138- SUDHL-4 cells adherent to BMSC; experiment: Cell proliferation assay ([3H]-thymidine) on cells adherent to BMSC, SUDHL-4; type: cell-based, human; conditions: SUDHL-4 on BMSC; 10 nM; 72 h treatment
Experimental: as §3, §4, §5

Compound | Cytotoxicity relative to anti-cancer drugs in clinical use that affect tubulin polymerization (Vinca alkaloids, taxol) ([1]; higher) | Adverse effects in clinical trials [2] | Cell survival / growth (MTT assay) [3] | Cell proliferation ([3H]thymidine incorporation) [4] | annexin V+/PI- and annexin V+/PI+ fractions (apoptotic cell death) (CD138+ Ocy-My5 MM cells) | Cytotoxicity relative to maytansine ([1]; more cytotoxic) | Cell survival / growth (MTT assay) [5] | Cell proliferation ([3H]thymidine incorporation) [6]
COc1cc2cc(c1Cl)N(C)C(=O)C[C@H](OC(=O)[C@H](C)N(C)C(C)=O)[C@]1(C)O[C@H]1[C@H](C)[C@@H]1C[C@@](O)(NC(=O)O1)[C@H](OC)/C=C/C=C(\C)C2 [maytansine] | 200-1000 fold | serious adverse effects on the central nervous system and gastrointestinal system |  |  |  |  |  | 
COc1cc2cc(c1Cl)N(C)C(=O)C[C@H](OC(=O)[C@H](C)N(C)C(=O)CCS)[C@]1(C)O[C@H]1[C@H](C)[C@@H]1C[C@@](O)(NC(=O)O1)[C@H](OC)/C=C/C=C(\C)C2 [DM1, N^2-deacetyl-N^2-(3-mercapto-1-oxopropyl)-maytansine] |  |  | equally and highly cytotoxic | cytotoxic to both cell lines | significant increase | 3- to 10 fold | equally and highly cytotoxic | cytotoxic to both cell lines
